Assay results as given in ChEMBL document CHEMBL1909046, “DrugMatrix in vitro pharmacology data”.

What was measured:
[1] = target: Mitogen-activated protein kinase 3 (Homo sapiens, UniProt P27361); experiment: DRUGMATRIX: Protein Serine/Threonine Kinase, ERK1 enzyme inhibition (substrate: Myelin Basic Protein); parameters: species or system Escherichia coli; details: Not Active = under 50% inhibition at 10 µM
Melanocortin receptor 4 = Melanocortin receptor 4 (Homo sapiens, UniProt P32245); assay type: cell membranes, Membrane; details: hek293; also: in other assays of this panel Not Active means under 50% inhibition at 10 µM
Chain of Melanocortin receptor 4 (P32245 whole entry): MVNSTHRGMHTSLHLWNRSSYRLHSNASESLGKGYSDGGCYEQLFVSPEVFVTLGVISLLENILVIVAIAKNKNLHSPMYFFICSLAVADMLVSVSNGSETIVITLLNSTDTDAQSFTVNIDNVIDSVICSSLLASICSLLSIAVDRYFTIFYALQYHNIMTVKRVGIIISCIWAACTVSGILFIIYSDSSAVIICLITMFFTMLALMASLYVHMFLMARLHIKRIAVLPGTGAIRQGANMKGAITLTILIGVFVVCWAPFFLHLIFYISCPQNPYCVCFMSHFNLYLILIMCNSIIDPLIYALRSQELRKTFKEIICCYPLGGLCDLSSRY

[2] = DRUGMATRIX: Glutamate, NMDA, Phencyclidine radioligand binding (ligand: [3H] TCP); assay type: cell membranes, Rattus norvegicus, Wistar, Cerebral cortex, Membrane; details: Not Active = under 50% inhibition at 10 µM
[3] = DRUGMATRIX: Calcium Channel Type L, Dihydropyridine radioligand binding (ligand: [3H] Nitrendipine); assay type: cell membranes, Rattus norvegicus, Wistar, Cerebral cortex, Membrane; details: Not Active = under 50% inhibition at 10 µM
[4] = target: T1, Angiotensin-converting enzyme (Oryctolagus cuniculus, UniProt P12822); assay type: tissue-based, Lung;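 also: enzymatic inhibition of angiotensin-converting enzyme measured with FAPGG as the substrate; in other assays of this panel Not Active means under 50% inhibition at 10 µM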
T1 sequence (P12822 whole entry): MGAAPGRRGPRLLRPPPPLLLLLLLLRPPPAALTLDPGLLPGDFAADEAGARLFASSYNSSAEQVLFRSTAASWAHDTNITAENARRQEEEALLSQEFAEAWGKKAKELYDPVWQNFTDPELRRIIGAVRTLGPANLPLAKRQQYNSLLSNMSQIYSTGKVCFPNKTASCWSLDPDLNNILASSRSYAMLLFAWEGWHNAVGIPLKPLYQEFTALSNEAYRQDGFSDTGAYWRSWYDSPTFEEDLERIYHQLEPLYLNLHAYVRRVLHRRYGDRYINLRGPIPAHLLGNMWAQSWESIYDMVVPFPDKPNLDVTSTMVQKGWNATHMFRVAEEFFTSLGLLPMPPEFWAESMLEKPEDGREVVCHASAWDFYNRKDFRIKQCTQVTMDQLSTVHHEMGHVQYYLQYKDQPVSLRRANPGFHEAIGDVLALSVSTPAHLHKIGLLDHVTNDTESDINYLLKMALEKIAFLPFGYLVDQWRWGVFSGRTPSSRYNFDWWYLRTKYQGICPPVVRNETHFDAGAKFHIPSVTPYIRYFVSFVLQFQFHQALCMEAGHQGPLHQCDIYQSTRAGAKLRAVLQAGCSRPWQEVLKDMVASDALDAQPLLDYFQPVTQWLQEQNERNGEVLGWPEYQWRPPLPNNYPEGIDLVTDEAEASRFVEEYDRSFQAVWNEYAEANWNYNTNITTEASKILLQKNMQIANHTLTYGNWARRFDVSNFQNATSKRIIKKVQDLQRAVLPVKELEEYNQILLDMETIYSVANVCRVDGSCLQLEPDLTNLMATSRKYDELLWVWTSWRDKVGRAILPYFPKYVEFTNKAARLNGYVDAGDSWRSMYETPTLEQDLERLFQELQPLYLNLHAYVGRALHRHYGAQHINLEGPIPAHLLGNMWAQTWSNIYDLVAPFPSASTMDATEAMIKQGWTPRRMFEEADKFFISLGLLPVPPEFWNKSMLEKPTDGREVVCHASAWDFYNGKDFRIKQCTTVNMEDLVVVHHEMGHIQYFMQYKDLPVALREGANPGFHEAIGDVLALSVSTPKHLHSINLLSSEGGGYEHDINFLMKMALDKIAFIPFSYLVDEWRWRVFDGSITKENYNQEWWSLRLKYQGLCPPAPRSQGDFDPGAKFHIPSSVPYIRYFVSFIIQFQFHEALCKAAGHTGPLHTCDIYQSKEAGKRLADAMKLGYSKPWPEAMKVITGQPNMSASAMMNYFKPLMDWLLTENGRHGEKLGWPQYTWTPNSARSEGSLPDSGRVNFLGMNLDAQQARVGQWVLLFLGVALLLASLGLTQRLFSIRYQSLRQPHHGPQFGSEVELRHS

[5] = target: T2, C-C chemokine receptor type 4 (Homo sapiens, UniProt P51679); assay type: cell membranes, Membrane; details: chem-1; also: in other assays of this panel Not Active means under 50% inhibition at 10 µM
T2 sequence (P51679 whole entry): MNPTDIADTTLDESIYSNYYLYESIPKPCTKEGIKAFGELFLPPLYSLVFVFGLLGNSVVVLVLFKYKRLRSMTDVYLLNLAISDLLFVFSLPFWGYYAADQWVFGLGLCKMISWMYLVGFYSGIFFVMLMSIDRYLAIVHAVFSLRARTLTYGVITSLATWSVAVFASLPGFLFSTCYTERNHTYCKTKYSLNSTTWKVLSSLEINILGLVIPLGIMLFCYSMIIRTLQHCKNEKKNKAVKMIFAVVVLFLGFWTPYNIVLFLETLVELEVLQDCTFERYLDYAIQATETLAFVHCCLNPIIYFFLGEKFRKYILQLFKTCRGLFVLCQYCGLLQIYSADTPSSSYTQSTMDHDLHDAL

Chain of Mitogen-activated protein kinase 3 (P27361 whole entry): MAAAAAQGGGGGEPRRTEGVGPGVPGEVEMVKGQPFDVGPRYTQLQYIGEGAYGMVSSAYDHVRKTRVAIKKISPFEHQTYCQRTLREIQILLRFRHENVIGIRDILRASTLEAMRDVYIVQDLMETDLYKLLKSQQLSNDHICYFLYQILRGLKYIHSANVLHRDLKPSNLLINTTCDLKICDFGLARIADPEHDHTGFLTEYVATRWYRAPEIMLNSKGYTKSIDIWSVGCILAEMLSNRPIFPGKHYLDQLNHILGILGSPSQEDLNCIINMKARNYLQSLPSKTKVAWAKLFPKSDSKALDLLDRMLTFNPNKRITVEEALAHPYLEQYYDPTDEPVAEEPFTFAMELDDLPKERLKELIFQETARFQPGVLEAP

O=C(O)c1cc(-c2ccc(F)cc2F)ccc1O [DIFLUNISAL]
Not Active: IC50 [1] | IC50 (Melanocortin receptor 4) | IC50 [2] | Ki [2] | IC50 [3] | Ki [3] | IC50 [4] | IC50 [5]

CCn1cc(C(=O)O)c(=O)c2cc(F)c(N3CCNC(C)C3)c(F)c21 (stereo unspecified) [LOMEFLOXACIN]
Not Active: IC50 [1] | IC50 (Melanocortin receptor 4) | IC50 [2] | Ki [2] | IC50 [3] | Ki [3] | IC50 [4] | IC50 [5]

CN(C)C(=O)Oc1cccc([N+](C)(C)C)c1.[Br-] [NEOSTIGMINE BROMIDE]
Not Active: IC50 [1] | IC50 (Melanocortin receptor 4) | IC50 [2] | Ki [2] | IC50 [3] | Ki [3] | IC50 [4] | IC50 [5]

CN1CCCC(CN2c3ccccc3Sc3ccccc32)C1 (stereo unspecified) [MEPAZINE]
Not Active: IC50 [1] | IC50 (Melanocortin receptor 4) | IC50 [2] | Ki [2] | IC50 [3] | Ki [3] | IC50 [4] | IC50 [5]

ClC(Cl)(Cl)Cl [CARBON TETRACHLORIDE]
Not Active: IC50 [1] | IC50 (Melanocortin receptor 4) | IC50 [2] | Ki [2] | IC50 [3] | Ki [3] | IC50 [4] | IC50 [5]

CCN(CC)CCCC(C)Nc1c2ccc(Cl)cc2nc2ccc(OC)cc12 (stereo unspecified) [QUINACRINE]
Not Active: IC50 [1] | IC50 (Melanocortin receptor 4) | IC50 [2] | Ki [2] | IC50 [3] | Ki [3] | IC50 [4] | IC50 [5]

CC[C@H]1[C@@H]2C[C@H]3[C@@H]4N(C)c5ccccc5[C@]45C[C@@H]([C@@H]2[C@H]5O)N3[C@@H]1O [AJMALINE]
Not Active: IC50 [1] | IC50 (Melanocortin receptor 4) | IC50 [2] | Ki [2] | IC50 [3] | Ki [3] | IC50 [4] | IC50 [5]

C[C@H]1[C@H](NC(=O)/C(=N\OC(C)(C)C(=O)O)c2csc(N)n2)C(=O)N1S(=O)(=O)O [AZTREONAM]
Not Active: IC50 [1] | IC50 (Melanocortin receptor 4) | IC50 [2] | Ki [2] | IC50 [3] | Ki [3] | IC50 [4] | IC50 [5]

CO/N=C(\C(=O)N[C@@H]1C(=O)N2C(C(=O)O)=C(COC(C)=O)CS[C@H]12)c1csc(N)n1 [CEFOTAXIME]
Not Active: IC50 (Melanocortin receptor 4) | IC50 [2] | Ki [2] | IC50 [3] | Ki [3] | IC50 [4] | IC50 [5]

CC(C)c1c(C(=O)Nc2ccccc2)c(-c2ccccc2)c(-c2ccc(F)cc2)n1CC[C@@H](O)C[C@@H](O)CC(=O)O [ATORVASTATIN]
Not Active: IC50 [1] | IC50 (Melanocortin receptor 4) | IC50 [2] | Ki [2] | IC50 [3] | Ki [3] | IC50 [4] | IC50 [5]

CC(C)C[C@H]1C(=O)N2CCC[C@H]2[C@]2(O)O[C@](NC(=O)[C@@H]3C=C4c5cccc6[nH]cc(c56)C[C@H]4N(C)C3)(C(C)C)C(=O)N12 [ERGOCRYPTINE]
Not Active: IC50 [1] | IC50 (Melanocortin receptor 4) | IC50 [2] | Ki [2] | IC50 [3] | Ki [3] | IC50 [4] | IC50 [5]

CCN(C(C)=O)c1cccc(-c2ccnc3c(C#N)cnn23)c1 [ZALEPLON]
Not Active: IC50 [1] | IC50 (Melanocortin receptor 4) | IC50 [2] | Ki [2] | IC50 [3] | Ki [3] | IC50 [4] | IC50 [5]

N[C@@H](Cn1ccc(=O)c(O)c1)C(=O)O [L-MIMOSINE]
Not Active: IC50 [1] | IC50 (Melanocortin receptor 4) | IC50 [2] | Ki [2] | IC50 [3] | Ki [3] | IC50 [4] | IC50 [5]

Nc1cc(-c2ccncc2)c[nH]c1=O [INAMRINONE]
Not Active: IC50 [1] | IC50 (Melanocortin receptor 4) | IC50 [2] | Ki [2] | IC50 [3] | Ki [3] | IC50 [4] | IC50 [5]
